The target in test [1] is T1, unphosphorylated VEGF-R2Δ50 (FLVK) (Homo sapiens, UniProt P35968, DEL940-989/E990V).
T1 construct: VEGF-R2Δ50 contains residues 806-939 and 990-1171; made in house; host or cells: baculovirus/insect cell system
Briefly: VEGF-R2 coupled spectrophotometric assay, unphosphorylated construct (FLVK). Type of test: biochemical. The conditions noted are these: for inhibition at 0.05 µM: percent inhibition at 50 nM. The method in brief:
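Continuous coupled assay (PEP, PK, LDH; NADH loss at 340 nm) in 200 mM HEPES pH 7.5 with 3 mM ATP, 20 mM poly(E4Y1), 60 mM MgCl2 plus 2 mM MnCl2, started with 5-40 nM non-autophosphorylated VEGF-R2Δ50. Ki values from activity across compound concentrations, Morrison fit.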

For test [2], the system named is human umbilical vein endothelial cells (HUVEC). Briefly: HUVEC+VEGF proliferation assay. As to conditions: Homo sapiens, HUVEC, 72 h, VEGF 6 ng/mL, MTT. Type of test: cell-based. An outline of the steps: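 Proliferation driven by VEGF (final 6 ng/mL) was quantified by MTT reduction (A595) 72 h after stimulation. Passage 3-4 HUVEC were starved for 24 h in 1% FBS F12K and given test agent 1 h before VEGF, with DMSO at 0.1% final.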

Broadly, the Ki is a measure of affinity in units of concentration, obtained from inhibition or displacement. A low value points to higher affinity. One may read the inhibition as the drop in the measured response relative to a control, in per cent. The low end stands for little suppression, the high end for strong suppression. By IC50 is commonly meant the midpoint of a concentration-inhibition curve.

T1 sequence (P35968 with tags, fused parts or gaps DEL940-989/E990V limits assumed): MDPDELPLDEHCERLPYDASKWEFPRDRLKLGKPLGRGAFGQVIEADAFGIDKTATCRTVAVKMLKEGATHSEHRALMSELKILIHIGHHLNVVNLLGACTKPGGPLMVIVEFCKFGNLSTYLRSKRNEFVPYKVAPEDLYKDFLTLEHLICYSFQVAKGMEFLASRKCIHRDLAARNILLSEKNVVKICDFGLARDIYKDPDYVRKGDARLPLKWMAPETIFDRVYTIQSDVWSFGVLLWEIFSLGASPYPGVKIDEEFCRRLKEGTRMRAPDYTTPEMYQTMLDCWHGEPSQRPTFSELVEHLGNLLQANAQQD

In test [1], `CNC(=O)n1c(C)cc2cc(Nc3ccnc4cc(C(=O)N5CCC[C@@H]5CO)sc34)ccc21` [Example 1a, 5-[2-(2R-Hydroxymethyl-pyrrolidine-1-carbonyl)-thieno[3,2-b]pyridin-7-ylamino]-2-methyl-indole-1-carboxylic acid methylamide] yielded a Ki of 690 pM and an inhibition at 0.05 µM of 90%. In addition, the IC50 in test [2] was 910 pM.
In test [1], `CNC(=O)n1c(C)cc2cc(Nc3ccnc4cc(C(=O)N5CCC[C@@H]5COC)sc34)ccc21` [Example 1b, 5-[2-(2R-Methoxymethyl-pyrrolidine-1-carbonyl)-thieno[3,2-b]pyridin-7-ylamino]-2-methyl-indole-1-carboxylic acid methylamide] returned a Ki of 960 pM and an inhibition at 0.05 µM of 88%. Also, the IC50 in test [2] was 690 pM.
In test [1], `Cc1cc2cc(Nc3ccnc4cc(C(=O)N5CCC[C@@H]5CO)sc34)ccc2n1C(=O)NC1CC1` [Example 1c, 5-[2-(2R-Hydroxymethyl-pyrrolidine-1-carbonyl)-thieno[3,2-b]pyridin-7-ylamino]-2-methyl-indole-1-carboxylic acid cyclopropylamide] returned a Ki of 670 pM and an inhibition at 0.05 µM of 98%. Also, the IC50 in test [2] came out at 700 pM.
`Cc1cc2cc(Nc3ccnc4cc(C(=O)N5CC[C@H](O)C5)sc34)ccc2n1C(=O)NC1CC1` [Example 1k, 5-[2-(3S-Hydroxy-pyrrolidine-1-carbonyl)-thieno[3,2-b]pyridin-7-ylamino]-2-methyl-indole-1-carboxylic acid cyclopropylamide]: in test [1], the Ki is 630 pM and the inhibition at 0.05 µM was found to be 97%.
As to `CNC(=O)n1c(C)cc2cc(Nc3ccnc4cc(C(=O)N5CC[C@@H](OC)C5)sc34)ccc21` [Example 1l, 5-[2-(3R-Methoxy-pyrrolidine-1-carbonyl)-thieno[3,2-b]pyridin-7-ylamino]-2-methyl-indole-1-carboxylic acid methylamide], the inhibition at 0.05 µM in test [1] is 94%. Besides, the IC50 in test [2] turned out to be 300 pM.
In the same order, the values of `CNC(=O)n1c(C)cc2cc(Nc3ccnc4cc(C(=O)N5CC[C@@H](O)C5)sc34)ccc21` [Example 1n, 5-[2-(3R-Hydroxy-pyrrolidine-1-carbonyl)-thieno[3,2-b]pyridin-7-ylamino]-2-methyl-indole-1-carboxylic acid methylamide] are 94% and 640 pM.
In test [1], `C#CCNC(=O)n1c(C)cc2cc(Nc3ccnc4cc(C(=O)N5CC[C@@H](O)C5)sc34)ccc21` [Example 1o, 5-[2-(3R-Hydroxy-pyrrolidine-1-carbonyl)-thieno[3,2-b]pyridin-7-ylamino]-2-methyl-indole-1-carboxylic acid prop-2-ynylamide] gave a Ki of 370 pM and an inhibition at 0.05 µM of 96%. Besides, in test [2], the IC50 is 340 pM.
In test [1], `Cc1cc2cc(Nc3ccnc4cc(-c5nccn5C)sc34)ccc2n1C(=O)NC1CC1` [Example 2d, 5-(2-[1-methyl-1H-imidazol-2-yl]thieno[3,2-b]pyridin-7-ylamino)-2-methylindole-1-carboxylic acid cyclopropylamide] returned a Ki of 320 pM and an inhibition at 0.05 µM of 98%. Further, in test [2], the IC50 is 150 pM.
As for `Cc1cc2cc(Nc3ccnc4cc(C(=O)N5CCC[C@H]5CO)sc34)ccc2n1C(=O)NC1CC1` [Example 2e, 5-(2-[(S)-2-(hydroxymethyl)pyrrolidine-1-carbonyl]thieno[3,2-b]pyridin-7-ylamino)-2-methylindole-1-carboxylic acid cyclopropylamide], in test [1], the affinity corresponds to a Ki of 160 pM and the inhibition at 0.05 µM is 95%. Moreover, the IC50 in test [2] was determined as 500 pM.
As for `CNC(=O)n1c(C)cc2cc(Nc3ccnc4cc(-c5nc(C(C)(C)O)cs5)sc34)ccc21` [Example 3a, 5-{2-[4-(1-Hydroxy-1-methyl-ethyl)-thiazol-2-yl]-thieno[3,2-b]pyridin-7-ylamino}-2-methyl-indole-1-carboxylic acid methylamide], in test [1], the affinity corresponds to a Ki of 450 pM and the inhibition at 0.05 µM was found to be 91%. Moreover, the IC50 in test [2] was 245 pM.
In test [1], `Cc1cc2cc(Nc3ccnc4cc(-c5nc(C(C)(C)O)cs5)sc34)ccc2n1C(=O)NC1CC1` [Example 3b, 5-{2-[4-(1-Hydroxy-1-methyl-ethyl)-thiazol-2-yl]-thieno[3,2-b]pyridin-7-ylamino}-2-methyl-indole-1-carboxylic acid cyclopropylamide] yielded an inhibition constant Ki of 210 pM and an inhibition at 0.05 µM of 95%.
In test [1], `CCOC(=O)c1csc(-c2cc3nccc(Nc4ccc5c(c4)cc(C)n5C(=O)NC)c3s2)n1` [Example 3c, 2-[7-(2-Methyl-1-methylcarbamoyl-1H-indol-5-ylamino)-thieno[3,2-b]pyridin-2-yl]-thiazole-4-carboxylic acid ethyl ester] displayed a Ki of 790 pM and an inhibition at 0.05 µM of 81%. Moreover, the IC50 in test [2] worked out at 2330 pM.
In the same order, the values of `CNC(=O)n1c(C)cc2cc(Nc3cccc4cc(C(=O)N5C[C@H](OC)C[C@H]5CO)sc34)ccc21` [Example 3f, 5-[2-((2S,4R)-2-Hydroxymethyl-4-methoxy-pyrrolidine-1-carbonyl)-benzo[b]thiophen-7-ylamino]-2-methyl-indole-1-carboxylic acid methylamide] are 10500 pM, 57% and 3990 pM.
Regarding `COC[C@@H]1CCCN1C(=O)c1cc2nccc(Oc3ccc4c(c3)cc(C)n4C(=O)NCC#CCO)c2s1` [Example 4d, 5-(2-[(S)-2-(methoxymethyl)pyrrolidine-1-carbonyl]thieno[3,2-b]pyridin-7-yloxy)-2-methylindole-1-carboxylic acid (4-hydroxybut-2-ynyl)amide], in test [1], affinity was put at a Ki of 410 pM and the inhibition at 0.05 µM was 91%.
Take `C#CCNC(=O)n1c(C)cc2c(F)c(Oc3ccnc4cc(C(=O)N5CCC[C@H]5CO)sc34)ccc21` [Example 5e, 4-Fluoro-5-[2-(2S-hydroxymethyl-pyrrolidine-1-carbonyl)-thieno[3,2-b]pyridin-7-yloxy]-2-methyl-indole-1-carboxylic acid prop-2-ynylamide]: in test [1], the Ki stood at 431 pM and the inhibition at 0.05 µM was 100%.
In test [1], `CNC(=O)n1c(C)cc2c(F)c(Oc3ccnc4cc(C(=O)N5CCC[C@H]5CO)sc34)ccc21` [Example 5n, 4-Fluoro-5-[(2-{[(2S)-2-(hydroxymethyl)pyrrolidin-1-yl]carbonyl}thieno[3,2-b]pyridin-7-yl)oxy]-N,2-dimethyl-1H-indole-1-carboxamide] yielded a Ki of 120 pM and an inhibition at 0.05 µM of 100%.
For the molecule `C#CCNC(=O)n1c(C)c(Cl)c2c(F)c(Oc3ccnc4cc(C(=O)N5CC[C@H](O)C5)sc34)ccc21` [Example 6d, 3-Chloro-4-fluoro-5-[2-(3S-hydroxy-pyrrolidine-1-carbonyl)-thieno[3,2-b]pyridin-7-yloxy]-2-methyl-indole-1-carboxylic acid prop-2-ynylamide], in test [1], the Ki was 320 pM and 0.05 µM produced 99% inhibition.
In test [1], `CNC(=O)n1c(C)cc2cc(Oc3ccnc4cc(C(=O)N5CC[C@H](O)C5)sc34)ccc21` [Example 9g, 5-[2-(3S-Hydroxy-pyrrolidine-1-carbonyl)-thieno[3,2-b]pyridin-7-yloxy]-2-methyl-indole-1-carboxylic acid methylamide] yielded a Ki of 243 pM and an inhibition at 0.05 µM of 98%.

Source of the values: US6833456B2, “Indolyl-urea derivatives of thienopyridines useful as antiangiogenic agents, and methods for their use” (Agouron Pharmaceuticals, Inc., priority 2002, dated 2004).
